In US20240300980A1, “HETEROCYCLIC COMPOUNDS AS KRAS INHIBITOR, AND PREPARATION THEREFOR AND USE THEREOF IN TREATMENT” (SHANGHAI KECHOW PHARMA, INC., priority 2021, published 2024):
pIC50: −log10 of the molar value. Where two headings read alike, the source gives them in different places.

Test system: AGS cells (KRAS^G12D)
Test: Detection of cell proliferation in vitro by MTT/MTS method (cell activity experiment)
Type: cell-based
Conditions: AGS cells, MTT/MTS, 3 days of drug treatment, read-out: AGS IC50
Method in brief: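 KRAS G12D AGS cells seeded at 1000 per well, compound added 24 h later, 0.5% final DMSO. Viability read after 3 days of treatment by MTT (solubilised in DMSO) or MTS, 4 h, absorbance 490 nm. IC50 from dose–response curves versus DMSO control.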

Row | pIC50 | SMILES | pIC50 (Homo sapiens, AGS, 72 h)
1 | – | C#Cc1c(F)ccc2cc(O)cc(-c3ncc4c(N5CCC(N)C5)nc(OC[C@@]56CCCN5C[C@H](F)C6)nc4c3F)c12 (stereo partly drawn) [Example 51, 4-(4-(3-aminopyrrolidin-1-yl)-8-fluoro-2-(((2R, 7aS)-2-fluorotetrahydro-1H-pyrrolizin-7a(5H)-yl)methoxy)pyrido[4,3-d]pyrimidin-7-yl)-5-ethynyl-6-fluoronaphthalen-2-ol] | 5.78
2 | – | CSC1CCc2cc(O)cc(-c3ncc4c(N5C[C@H]6CC[C@@H](C5)N6)nc(OC[C@@]56CCCN5C[C@H](F)C6)nc4c3F)c21 (stereo partly drawn) [Example 354, 7-(4-((1R,5S)-3,8-diazabicyclo[3.2.1]octan-3-yl)-8-fluoro-2-(((2R,7aS)-2-fluorotetrahydro-1H-pyrrolizin-7a(5H)-yl)methoxy)pyrido[4,3-d]pyrimidin-7-yl)-1-(methylthio)-2,3-dihydro-1H-inden-5-ol] | 7.60
3 | – | Oc1cc(-c2ccc3c(N4C[C@H]5CC[C@@H](C4)S5)nc(OC[C@@]45CCCN4C[C@H](F)C5)nc3c2F)c2c(F)c(F)ccc2c1 [Example 164, 4-(4-((1R,5S)-8-thia-3-azabicyclo[3.2.1]octan-3-yl)-8-fluoro-2-(((2R,7aS)-2-fluorotetrahydro-1H-pyrrolizin-7a(5H)-yl)methoxy)quinazolin-7-yl)-5,6-difluoronaphthalen-2-ol] | 6.52
4 | – | CCCC1CCc2cc(O)cc(-c3ncc4c(N5C[C@H]6CC[C@@H](C5)N6)nc(OC[C@@]56CCCN5C[C@H](F)C6)nc4c3F)c21 (stereo partly drawn) [Example 242, 7-(4-((1R,5S)-3,8-diazabicyclo[3.2.1]octan-3-yl)-8-fluoro-2-(((2R,7aS)-2-fluorotetrahydro-1H-pyrrolizin-7a(5H)-yl)methoxy)pyrido[4,3-d]pyrimidin-7-yl)-1-propyl-2,3-dihydro-1H-inden-5-ol] | 7.47
5 | – | CCc1c(F)ccc2cc(O)cc(N3CCc4c(nc(OC[C@]56CCCN5[C@@H](COC(=O)N(C)C)CC6)nc4N4C[C@H]5CC[C@@H](C4)N5)C3)c12 [Example 210, ((3R,7aR)-7a-(((4-((1R,5S)-3,8-diazabicyclo[3.2.1]octan-3-yl)-7-(8-ethyl-7-fluoro-3-hydroxynaphthalen-1-yl)-5,6,7,8-tetrahydropyrido[3,4-d]pyrimidin-2-yl)oxy)methyl)hexahydro-1H-pyrrolizin-3-yl)methyl dimethylcarbamate] | 7.19
6 | – | Oc1cc2c(c(-c3ncc4c(N5C[C@H]6CC[C@@H](C5)N6)nc(OC[C@@]56CCCN5C[C@H](F)C6)nc4c3F)c1)C1(CCC2)CC1 [Example 256, 8′-(4-((1R,5S)-3,8-diazabicyclo[3.2.1]octan-3-yl)-8-fluoro-2-(((2R,7aS)-2-fluorotetrahydro-1H-pyrrolizin-7a(5H)-yl)methoxy)pyrido[4,3-d]pyrimidin-7-yl)-3′,4′-dihydro-2′H-spiro[cyclopropane-1,1′-naphthalen]-6′-ol] | 6.52
7 | – | C#Cc1cccc2cc(O)cc(-c3ccc4c(N5CC6CCCC(C5)N6)nc(OC[C@@]56CCCN5C[C@H](F)C6)nc4c3F)c12 [Example 106, 4-(4-(3,9-diazabicyclo [3.3.1]nonan-3-yl)-8-fluoro-2-(((2R,7aS)-2-fluorotetrahydro-1H-pyrrolizin-7a(5H)-yl)methoxy)quinazolin-7-yl)-5-ethynylnaphthalen-2-ol] | 6.92
8 | – | CCc1c(F)ccc2cc(O)cc(-c3cnc4c(N5C[C@H]6CC[C@@H](C5)N6)nc(OC[C@@]56CCCN5C[C@H](F)C6)nc4c3)c12 [Example 201, 4-(4-((1R,5S)-3,8-diazabicyclo[3.2.1]octan-3-yl)-2-(((2R,7aS)-2-fluorotetrahydro-1H-pyrrolizin-7a(5H)-yl)methoxy)pyrido[3,2-d]pyrimidin-7-yl)-5-ethyl-6-fluoronaphthalen-2-ol] | < 5.60
9 | < 5.60 | CCc1c(F)ccc2cc(O)cc(-c3ccc4c(N5C[C@H]6CC[C@@H](C5)[C@@H]6F)nc(OC[C@@]56CCCN5C[C@H](F)C6)nc4c3F)c12 [Example 124, 5-ethyl-6-fluoro-4-(8-fluoro-4-((1R,5S, 8R)-8-fluoro-3-azabicyclo[3.2.1]octan-3-yl)-2-(((2R,7aS)-2-fluorotetrahydro-1H-pyrrolizin-7a(5H)-yl)methoxy)quinazolin-7-yl)naphthalen-2-ol] | –
10 | – | C#Cc1cccc2cc(O)cc(-c3ccc4c(N5C[C@H]6CC[C@@H](C5)N6)c(C(F)(F)F)c(OC[C@@]56CCCN5C[C@H](F)C6)nc4c3)c12 [Example 184, 4-(4-((1R,5S)-3,8-diazabicyclo[3.2.1]octan-3-yl)-2-(((2R,7aS)-2-fluorotetrahydro-1H-pyrrolizin-7a(5H)-yl)methoxy)-3-(trifluoromethyl)quinolin-7-yl)-5-ethynylnaphthalen-2-ol] | < 5.60
11 | – | CCc1c(F)ccc2cc(O)cc(-c3ccc4c(N5C[C@H]6CC[C@@H](C5)N6)c(C(F)(F)F)c(OC[C@@]56CCCN5C[C@H](F)C6)nc4c3F)c12 [Example 186, 4-(4-((1R,5S)-3,8-diazabicyclo[3.2.1]octan-3-yl)-8-fluoro-2-(((2R,7aS)-2-fluorotetrahydro-1H-pyrrolizin-7a(5H)-yl)methoxy)-3-(trifluoromethyl)quinolin-7-yl)-5-ethyl-6-fluoronaphthalen-2-ol] | 5.85
12 | – | Oc1cc(-c2ccc3c(N4C[C@H]5CC[C@@H](C4)N5)nc(OC[C@@]45CCCN4C[C@H](F)C5)nc3n2)c2c(F)c(F)ccc2c1 [Example 142, 4-(4-((1R,5S)-3,8-diazabicyclo[3.2.1]octan-3-yl)-2-(((2R,7aS)-2-fluorotetrahydro-1H-pyrrolizin-7a(5H)-yl)methoxy)pyrido[2,3-d]pyrimidin-7-yl)-5,6-difluoronaphthalen-2-ol] | < 5.60
13 | – | Cn1cnc2cc(O)cc(-c3ncc4c(N5C[C@H]6CC[C@@H](C5)N6)nc(OC[C@@]56CCCN5C[C@H](F)C6)nc4c3F)c21 [Example 279, 7-(4-((1R,5S)-3,8-diazabicyclo[3.2.1]octan-3-yl)-8-fluoro-2-(((2R,7aS)-2-fluorotetrahydro-1H-pyrrolizin-7a(5H)-yl)methoxy)pyrido[4,3-d]pyrimidin-7-yl)-1-methyl-1H-benzo[d]imidazol-5-ol] | < 5.00
14 | – | CCc1cccc2cc(O)cc(-c3ncc4c(N5C[C@H]6CC[C@@H](C5)S6)nc(OC[C@@]56CCCN5C[C@H](F)C6)nc4c3F)c12 [Example 25, 4-(4-((1R,5S)-8-thia-3-azabicyclo[3.2.1]octan-3-yl)-8-fluoro-2-(((2R, 7aS)-2-fluorotetrahydro-1H-pyrrolizin-7a(5H)-yl)methoxy)pyrido[4,3-d]pyrimidin-7-yl)-5-ethylnaphthalen-2-ol] | 6.54
15 | – | C#Cc1c(F)ccc2cccc(-c3ccc4c(N5C[C@H]6CC[C@@H](C5)N6)nc(OC[C@]56CCCN5[C@@H](COC(=O)N(C)C)CC6)nc4c3)c12 [Example 155, ((3R,7aR)-7a-(((4-((1R, 5S)-3,8-diazabicyclo [3.2.1]octan-3-yl)-7-(8-ethynyl-7-fluoronaphthalen-1-yl)quinazolin-2-yl)oxy)methyl)hexahydro-1H-pyrrolizin-3-yl)methyl dimethylcarbamate] | 6.67
16 | – | C#Cc1cccc2cc(O)cc(-c3ncc4c(N5CC6CCCNC6C5)nc(OC[C@@]56CCCN5C[C@H](F)C6)nc4c3F)c12 (stereo partly drawn) [Example 53, 5-ethynyl-4-(8-fluoro-2-(((2R,7aS)-2-fluorotetrahydro-1H-pyrrolizin-7a(5H)-yl)methoxy)-4-(octahydro-6H-pyrrolo[3,4-b]pyridin-6-yl)pyrido[4,3-d]pyrimidin-7-yl)naphthalen-2-ol] | < 5.60
